As usually defined, the IC50 is the point on the concentration scale where inhibition reaches its midpoint.

This is an account of results in patent publication US11505548B2, “Heterocyclic compounds and their use for treatment of helminthic infections and diseases” (Celgene Corporation, priority 2019, dated 2022).

For the assay, the system named is Onchocerca gutturosa Adult Male Worms. Put plainly: Onchocerciasis in vitro screening model, worm motility score. The class given is cell-based. The conditions noted are these: read-out: O. gutturosa activity level (IC50 or MED).
Setting [1] is: Onchocerca gutturosa, Table 1 O. gutturosa, levels A/B/C, motility or MTT readout not specified.
Setting [2] is: in vitro, Onchocerca gutturosa adult male worms, class A/B/C.

SMILES strings stand for the structures. Read-outs that look alike come from different tables or passages of the source. Where only a bound is given, the exact number is not on record here.

Consider `Cc1cccnc1Nc1nc(-c2ccc(OC3CCN(C)CC3)cn2)n[nH]1` [Compound 71, 3-methyl-N-(3-(5-(1-methyl-piperidin-4-yloxy)pyridin-2-yl)-1H-1,2,4-triazol-5-yl) pyridin-2-amine], for which, under setting [1], the IC50 is 500 to 5000 nM.

On to `c1ccc(Nc2nc(-c3ccccn3)ns2)nc1` [Compound 33, N,3-di(pyridin-2-yl)-1,2,4-thiadiazol-5-amine], for which, under setting [1], the IC50 was less than 200 nM.

Turning to `CC(=O)N(C)c1nccnc1Nc1nc(-c2cc3ccn(C(C)C)c3cn2)ns1` [Compound 302, N-(3-(3-(1-isopropyl-1H-pyrrolo[2,3-c]pyridin-5-yl)-1,2,4-thiadiazol-5-ylamino)pyrazin-2-yl)-N-methylacetamide], the IC50 under setting [2] was less than 200 nM.

As for `CC(C)c1ccnc(-c2nsc(Nc3ncccc3C(F)(F)F)n2)c1` [Compound 67, 3-(4-isopropyl-pyridin-2-yl)-N-(3-(trifluoromethyl)pyridin-2-yl)-1,2,4-thiadiazol-5-amine], under setting [1], the IC50 is less than 200 nM.

With `Cc1ccnc(-c2nsc(Nc3ncccc3F)n2)c1` [Compound 12, N-(3-fluoropyridin-2-yl)-3-(4-methylpyridin-2-yl)-1,2,4-thiadiazol-5-amine], the IC50 under setting [1] was less than 200 nM.

As to `Cc1cccnc1Nc1nc(-c2ccc(N3CCS(=O)(=O)CC3)cn2)ns1` [Compound 26, 4-(6-(5-((3-methylpyridin-2-yl)amino)-1,2,4-thiadiazol-3-yl)pyridin-3-yl)thio-morpholine 1,1-dioxide], the IC50 under setting [1] fell in the range of 500 to 5000 nM.

As to `Cc1cnc(Nc2nc(-c3cc(C(N)=O)c(OC(C)C)cn3)ns2)c(C(F)(F)F)c1` [Compound 252, 5-isopropoxy-2-(5-(5-methyl-3-(trifluoro-methyl)pyridin-2-ylamino)-1,2,4-thiadiazol-3-yl)isonico-tinamide], under setting [2], the IC50 was 500 to 5000 nM.

With `CC(C)c1cccnc1Nc1nc(-c2cc(C(F)(F)F)c(OC3CC3)cn2)ns1` [Compound 109, 3-(5-cyclopropoxy-4-(trifluoromethyl)pyridin-2-yl)-N-(3-isopropyl-pyridin-2-yl)-1,2,4-thiadiazol-5-amine], under setting [1], the IC50 was less than 200 nM.

Turning to `Cc1cccnc1Nc1nc(-c2cc(C(F)(F)F)c(OCC3CC3)cn2)ns1` [Compound 110, 3-(5-(cyclo-propylmethoxy)-4-(trifluoromethyl)pyridin-2-yl)-N-(3-methyl-pyridin-2-yl)-1,2,4-thiadiazol-5-amine], under setting [1], the half-maximal inhibitory concentration (IC50) is less than 200 nM.

As for `Cc1cccnc1Nc1nc(-c2ccc(C(=O)N(C)C)cn2)ns1` [Compound 17, N,N-dimethyl-6-(5-(3-methylpyridin-2-ylamino)-1,2,4-thiadiazol-3-yl)nicotinamide], the IC50 under setting [1] was less than 200 nM.

Take `CC(=O)N(C)c1cccnc1Nc1nc(-c2cc(C(F)(F)F)c(OC(C)C)cn2)ns1` [Compound 187, N-(2-(3-(5-isopropoxy-4-(trifluoro-methyl)pyridin-2-yl)-1,2,4-thiadiazol-5-ylamino)pyridin-3-yl)-N-methylacetamide]: the IC50 under setting [1] fell in the range of 500 to 5000 nM.

In the case of `CC(=O)N(C)c1cc(C(F)(F)F)cnc1Nc1nc(-c2cc(OC(C)C)ccn2)ns1` [Compound 317, N-(2-(3-(4-isopropoxypyridin-2-yl)-1,2,4-thiadiazol-5-ylamino)-5-(trifluoromethyl)pyridin-3-yl)-N-methylacetamide], the IC50 under setting [2] is less than 200 nM.

As for `CC(=O)N(C)c1cc(C(F)(F)F)cnc1Nc1nc(-c2cc3c(cn2)NC(=O)C3(C)C)ns1` [Compound 280, N-(2-(3-(3,3-dimethyl-2-oxo-2,3-dihydro-1H-pyrrolo[2,3-c]pyridin-5-yl)-1,2,4-thiadiazol-5-ylamino)-5-(trifluoromethyl)pyridin-3-yl)-N-methylacetamide], the IC50 under setting [2] was 500 to 5000 nM.

`CC(C)Oc1ccc(-c2nnc(Nc3cc(C(F)(F)F)c(C(C)C)cn3)o2)nc1` [Compound 154, 5-(5-isoprop-oxypyridin-2-yl)-N-(5-isopropyl-4-(trifluoro-methyl)pyridin-2-yl)-1,3,4-oxadiazol-2-amine]: the 50% inhibitory concentration (IC50) under setting [1] is 200 to 500 nM.

Consider `Cc1cccnc1Nc1nc(-c2ccc(C(=O)N(C)C)cn2)no1` [Compound 277, N,N-dimethyl-6-(5-(3-methylpyridin-2-ylamino)-1,2,4-oxadiazol-3-yl)nicotinamide], for which the IC50 under setting [2] is 500 to 5000 nM.

On to `CC(C)Oc1ccc(-c2nsc(N(C)c3ncccc3N(C)C)n2)nc1` [Compound 139, N2-(3-(5-isoprop-oxypyridin-2-yl)-1,2,4-thiadiazol-5-yl)-N2,N3,N3-trimethylpyridine-2,3-diamine], for which the IC50 under setting [1] lay in the range of 500 to 5000 nM.

Turning to `CCN(c1nc(-c2ccc(OC(C)C)cn2)ns1)c1ncccc1C` [Compound 131, N-ethyl-3-(5-isopropoxy-pyridin-2-yl)-N-(3-methyl-pyridin-2-yl)-1,2,4-thiadiazol-5-amine], the IC50 under setting [1] is less than 200 nM.

Regarding `Cc1ccnc(-c2noc(Nc3ncccc3F)n2)c1` [Compound 14, N-(3-fluoro-pyridin-2-yl)-3-(4-methylpyridin-2-yl)-1,2,4-oxadiazol-5-amine], the 50% inhibitory concentration (IC50) under setting [1] was 500 to 5000 nM.

Turning to `Cc1ccnc(Nc2nsc(-c3ncccc3C)n2)c1` [Compound 305, 5-(3-methyl-pyridin-2-yl)-N-(4-methylpyridin-2-yl)-1,2,4-thiadiazol-3-amine], the IC50 under setting [2] is less than 200 nM.

Regarding `COc1cnc(Nc2nc(-c3cc(C(N)=O)c(OC(C)C)cn3)ns2)c(C(F)(F)F)c1` [Compound 253, 5-isopropoxy-2-(5-(5-methoxy-3-(trifluoro-methyl)pyridin-2-ylamino)-1,2,4-thiadiazol-3-yl)isonico-tinamide], the IC50 under setting [2] lay in the range of 500 to 5000 nM.

As for `c1ccc(-c2nsc(Nc3ccc(N4CCNCC4)cn3)n2)nc1` [Cmpd 4, N-(5-(piperazin-1-yl)pyridin-2-yl)-3-(pyridin-2-yl)-1,2,4-thiadiazol-5-amine], the half-inhibitory concentration (IC50) under setting [1] fell in the range of 500 to 5000 nM.

Regarding `CC(=O)N(C)c1cnc(Nc2nc(-c3cc(OC(C)C)ccn3)ns2)c(C)c1` [Compound 288, N-(6-(3-(4-isopropoxypyridin-2-yl)-1,2,4-thiadiazol-5-ylamino)-5-methylpyridin-3-yl)-N-methylacetamide], under setting [2], the IC50 was 500 to 5000 nM.

As for `COc1ccc(Nc2nnc(-c3cc(OC(C)C)ccn3)o2)nc1` [Compound 212, 5-(4-isoprop-oxypyridin-2-yl)-N-(5-methoxy-pyridin-2-yl)-1,3,4-oxadiazol-2-amine], the IC50 under setting [2] lay in the range of 500 to 5000 nM.

`Cc1cccnc1Nc1nc(-c2ccc(OC3CCN(C4CC4)CC3)cn2)ns1` [Compound 45, 3-(5-(1-cyclo-propylpiperidin-4-yloxy)pyridin-2-yl)-N-(3-methylpyridin-2-yl)-1,2,4-thiadiazol-5-amine]: the IC50 under setting [1] was less than 200 nM.

On to `Cc1cccnc1Nc1nc(-c2ccc(OC3CC4(CCN(C)C4)C3)cn2)ns1` (centres unmarked) [Compound 77, 3-(5-(6-methyl-6-azaspiro [3.4]octan-2-yloxy)pyridin-2-yl)-N-(3-methylpyridin-2-yl)-1,2,4-thiadiazol-5-amine], for which the IC50 under setting [1] lay within 500 to 5000 nM.

In the case of `CC(=O)N(C)c1cc(C(F)(F)F)cnc1Nc1nc(-c2cc3c(cn2)N(C)C(=O)C3(C)C)ns1` [Compound 287, N-methyl-N-(5-(trifluoromethyl)-2-(3-(1,3,3-trimethyl-2-oxo-2,3-dihydro-1H-pyrrolo[2,3-c]pyridin-5-yl)-1,2,4-thiadiazol-5-ylamino)pyridin-3-yl)acetamide], the IC50 under setting [2] was 500 to 5000 nM.
